Source: ChEMBL document CHEMBL3885861, “Open TG-GATES”

Organism: Rattus norvegicus
Test: Open TG-GATES - Regimen: Single
Format: toxicity, organism-based, Sprague-Dawley
Set-up: regimen Single, gender Male, age 6 weeks
Conditions: in vivo, po, 150 mg/kg, route gavage, dose level High; for APTT / Bas / Eos / Fbg / Hb / Ht / Lym / MCH / MCHC / MCV / Mono / Neu / PT / Plat / RBC / Ret / WBC: tissue Blood; for KIDNEY_L / KIDNEY_R / KIDNEY_TOTAL: tissue Kidney; for LIVER: tissue Liver; for A/G / ALP / ALT / AST / BUN / CRE / Ca / Cl / DBIL / GLC / IP / K / LDH / Na / PL / RALB / TBIL / TC / TG / TP / gamma-GTP: tissue Plasma

Compound: S=C=Nc1cccc2ccccc12 [1-NAPHTHYLISOTHIOCYANATE]
- TERMINAL_BW (3 h): 222.9 g
- APTT (3 h): 17.4 s
- Bas (3 h): 0.2%
- Eos (3 h): 0.8%
- Fbg (3 h): 243 mg/dL
- Hb (3 h): 13.9 g/dL
- Ht (3 h): 38.6%
- Lym (3 h): 77.8%
- MCH (3 h): 22.3 pg
- MCHC (3 h): 36%
- MCV (3 h): 61.8 fL
- Mono (3 h): 2.4%
- Neu (3 h): 18.2%
- PT (3 h): 11.8 s
- Plat (3 h): 124.6 x10_4/uL
- RBC (3 h): 626.2 x10_4/ul
- Ret (3 h): 8.3%
- WBC (3 h): 70.9 x10_2/uL
- KIDNEY_L (3 h): 0.9 g
- KIDNEY_R (3 h): 0.9 g
- KIDNEY_TOTAL (3 h): 1.9 g
- LIVER (3 h): 9.6 g
- A/G (3 h): 1.6
- ALP (3 h): 1056 IU/L
- ALT (3 h): 43 IU/L
- AST (3 h): 69.6 IU/L
- BUN (3 h): 9.2 mg/dL
- CRE (3 h): 0.4 mg/dL
- Ca (3 h): 10.9 mg/dL
- Cl (3 h): 103 meq/L
- DBIL (3 h): 0.2 mg/dL
- GLC (3 h): 314.6 mg/dL
- IP (3 h): 11.1 mg/dL
- K (3 h): 3.9 meq/L
- LDH (3 h): 205.6 IU/L
- Na (3 h): 141.4 meq/L
- PL (3 h): 142.2 mg/dL
- RALB (3 h): 3.5 g/dL
- TBIL (3 h): 0.2 mg/dL
- TC (3 h): 78.6 mg/dL
- TG (3 h): 77.6 mg/dL
- TP (3 h): 5.7 g/dL
- gamma-GTP (3 h): 1 IU/L
- TERMINAL_BW (6 h): 220.5 g
- APTT (6 h): 19.3 s
- Bas (6 h): 0.4%
- Eos (6 h): 0.6%
- Fbg (6 h): 247.2 mg/dL
- Hb (6 h): 14.3 g/dL
- Ht (6 h): 40.2%
- Lym (6 h): 80.6%
- MCH (6 h): 21.5 pg
- MCHC (6 h): 35.6%
- MCV (6 h): 60.3 fL
- Mono (6 h): 2.4%
- Neu (6 h): 15.4%
- PT (6 h): 12.1 s
- Plat (6 h): 127.2 x10_4/uL
- RBC (6 h): 668 x10_4/ul
- Ret (6 h): 7.4%
- WBC (6 h): 75.2 x10_2/uL
- KIDNEY_L (6 h): 0.9 g
- KIDNEY_R (6 h): 0.9 g
- KIDNEY_TOTAL (6 h): 1.9 g
- LIVER (6 h): 9 g
- A/G (6 h): 1.5
- ALP (6 h): 846.6 IU/L
- ALT (6 h): 40.4 IU/L
- AST (6 h): 71.4 IU/L
- BUN (6 h): 10 mg/dL
- CRE (6 h): 0.4 mg/dL
- Ca (6 h): 10.7 mg/dL
- Cl (6 h): 101.2 meq/L
- DBIL (6 h): 0.3 mg/dL
- GLC (6 h): 371.2 mg/dL
- IP (6 h): 10.4 mg/dL
- K (6 h): 4.4 meq/L
- LDH (6 h): 188.4 IU/L
- Na (6 h): 141 meq/L
- PL (6 h): 149.2 mg/dL
- RALB (6 h): 3.6 g/dL
- TBIL (6 h): 0.2 mg/dL
- TC (6 h): 85 mg/dL
- TG (6 h): 55.4 mg/dL
- TP (6 h): 5.9 g/dL
- gamma-GTP (6 h): 1.2 IU/L
- TERMINAL_BW (9 h): 219.4 g
- APTT (9 h): 19.1 s
- Bas (9 h): 0.4%
- Eos (9 h): 0.6%
- Fbg (9 h): 251.8 mg/dL
- Hb (9 h): 14.3 g/dL
- Ht (9 h): 40.2%
- Lym (9 h): 77.6%
- MCH (9 h): 21.9 pg
- MCHC (9 h): 35.7%
- MCV (9 h): 61.4 fL
- Mono (9 h): 3%
- Neu (9 h): 18.4%
- PT (9 h): 12.1 s
- Plat (9 h): 126.7 x10_4/uL
- RBC (9 h): 655.2 x10_4/ul
- Ret (9 h): 7.1%
- WBC (9 h): 81.9 x10_2/uL
- KIDNEY_L (9 h): 1 g
- KIDNEY_R (9 h): 0.9 g
- KIDNEY_TOTAL (9 h): 1.9 g
- LIVER (9 h): 8.7 g
- A/G (9 h): 1.5
- ALP (9 h): 968.6 IU/L
- ALT (9 h): 40 IU/L
- AST (9 h): 63.8 IU/L
- BUN (9 h): 10.2 mg/dL
- CRE (9 h): 0.4 mg/dL
- Ca (9 h): 10.8 mg/dL
- Cl (9 h): 101.8 meq/L
- DBIL (9 h): 0.3 mg/dL
- GLC (9 h): 352.4 mg/dL
- IP (9 h): 10.4 mg/dL
- K (9 h): 4.5 meq/L
- LDH (9 h): 186.8 IU/L
- Na (9 h): 140.8 meq/L
- PL (9 h): 151.4 mg/dL
- RALB (9 h): 3.6 g/dL
- TBIL (9 h): 0.2 mg/dL
- TC (9 h): 83.4 mg/dL
- TG (9 h): 35.6 mg/dL
- TP (9 h): 5.9 g/dL
- gamma-GTP (9 h): 1 IU/L
- TERMINAL_BW (24 h): 214.2 g
- APTT (24 h): 21.2 s
- Bas (24 h): 0.6%
- Eos (24 h): 0.2%
- Fbg (24 h): 392.4 mg/dL
- Hb (24 h): 14.7 g/dL
- Ht (24 h): 38.5%
- Lym (24 h): 43%
- MCH (24 h): 21.6 pg
- MCHC (24 h): 38.2%
- MCV (24 h): 56.4 fL
- Mono (24 h): 5.6%
- Neu (24 h): 49.6%
- PT (24 h): 12.8 s
- Plat (24 h): 145.8 x10_4/uL
- RBC (24 h): 682.8 x10_4/ul
- Ret (24 h): 6%
- WBC (24 h): 79 x10_2/uL
- KIDNEY_L (24 h): 0.9 g
- KIDNEY_R (24 h): 0.9 g
- KIDNEY_TOTAL (24 h): 1.9 g
- LIVER (24 h): 8.6 g
- A/G (24 h): 1.3
- ALP (24 h): 1505.2 IU/L
- ALT (24 h): 131.6 IU/L
- AST (24 h): 349.2 IU/L
- BUN (24 h): 11.2 mg/dL
- CRE (24 h): 0.5 mg/dL
- Ca (24 h): 10.4 mg/dL
- Cl (24 h): 96.8 meq/L
- DBIL (24 h): 1.5 mg/dL
- GLC (24 h): 190.8 mg/dL
- IP (24 h): 9.2 mg/dL
- K (24 h): 3.8 meq/L
- LDH (24 h): 601.8 IU/L
- Na (24 h): 142.2 meq/L
- PL (24 h): 268 mg/dL
- RALB (24 h): 3.3 g/dL
- TBIL (24 h): 1.7 mg/dL
- TC (24 h): 129.6 mg/dL
- TG (24 h): 64.2 mg/dL
- TP (24 h): 5.8 g/dL
- gamma-GTP (24 h): 7.4 IU/L
